Laboratory results: PubChem BioAssay AID1963427 (Molecular Pharmacology Branch, DTP, NCI, 2024)

Tested on: 317291-083-R-J1-PDC complex spheroid growth
Experiment: Anticancer human tumor 317291-083-R-J1-PDC patient-derived soft tissue sarcoma cell line growth inhibition [Asc]
Conditions: for IC50: curve of first compound; for viability, T/C: stronger effect = lower value
Method in brief: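 Concentration series start at each agent's clinical Cmax, or at 10 microM when none is established, and drop in half-log steps; agents are applied alone or together to complex spheroids built with HUVEC and hMSC.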

[1] = second compound 0.00316 µM, first compound 0.00949 µM
[2] = second compound 0.00316 µM, first compound 0.03 µM
[3] = second compound 0.00316 µM, first compound 0.0949 µM
[4] = second compound 0.00316 µM, first compound 0.3 µM
[5] = second compound 0.00316 µM, first compound 0.949 µM
[6] = second compound 0.00316 µM, first compound 3 µM
[7] = second compound 0.01 µM, first compound 0.00949 µM
[8] = second compound 0.01 µM, first compound 0.03 µM
[9] = second compound 0.01 µM, first compound 0.0949 µM
[10] = second compound 0.01 µM, first compound 0.3 µM
[11] = second compound 0.01 µM, first compound 0.949 µM
[12] = second compound 0.01 µM, first compound 3 µM
[13] = second compound 0.0316 µM, first compound 0.00949 µM
[14] = second compound 0.0316 µM, first compound 0.03 µM
[15] = second compound 0.0316 µM, first compound 0.0949 µM
[16] = second compound 0.0316 µM, first compound 0.3 µM
[17] = second compound 0.0316 µM, first compound 0.949 µM
[18] = second compound 0.0316 µM, first compound 3 µM
[19] = second compound 0.1 µM, first compound 0.00949 µM
[20] = second compound 0.1 µM, first compound 0.03 µM
[21] = second compound 0.1 µM, first compound 0.0949 µM
[22] = second compound 0.1 µM, first compound 0.3 µM
[23] = second compound 0.1 µM, first compound 0.949 µM
[24] = second compound 0.1 µM, first compound 3 µM
[25] = second compound 0.316 µM, first compound 0.00949 µM
[26] = second compound 0.316 µM, first compound 0.03 µM
[27] = second compound 0.316 µM, first compound 0.0949 µM
[28] = second compound 0.316 µM, first compound 0.3 µM
[29] = second compound 0.316 µM, first compound 0.949 µM
[30] = second compound 0.316 µM, first compound 3 µM
[31] = second compound 1 µM, first compound 0.00949 µM
[32] = second compound 1 µM, first compound 0.03 µM
[33] = second compound 1 µM, first compound 0.0949 µM
[34] = second compound 1 µM, first compound 0.3 µM
[35] = second compound 1 µM, first compound 0.949 µM
[36] = second compound 1 µM, first compound 3 µM
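Note: compound exposure lasted seven days after spheroids formed for three days.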
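Throughout, for viability, T/C: 100% = DMSO vehicle control wells.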

SMILES: CCN1C(C(=O)NC23CCC(C(=O)O)(CC2)CC3)C(c2cccc(Cl)c2F)C2(C(=O)Nc3cc(Cl)ccc32)C12CCCCC2 (centres undefined) + CNC(C)C(=O)NC1CN(S(=O)(=O)c2cccc(S(=O)(=O)N3CCC4CCC(C(=O)NC(c5ccccc5)c5ccccc5)N4C(=O)C(NC(=O)C(C)NC)C3)c2)CCC2CCC(C(=O)NC(c3ccccc3)c3ccccc3)N2C1=O
- IC50 (second compound 0.00316 µM): > 3000 nM
- IC50 (second compound 0.01 µM): > 3000 nM
- IC50 (second compound 0.0316 µM): > 3000 nM
- IC50 (second compound 0.1 µM): > 3000 nM
- IC50 (second compound 0.316 µM): < 9.49 nM
- IC50 (second compound 1 µM): < 9.49 nM
- viability, T/C [1]: 86%
- viability, T/C [2]: 113%
- viability, T/C [3]: 100%
- viability, T/C [4]: 108%
- viability, T/C [5]: 84.6%
- viability, T/C [6]: 65.1%
- viability, T/C [7]: 68.5%
- viability, T/C [8]: 95.9%
- viability, T/C [9]: 83.7%
- viability, T/C [10]: 71.9%
- viability, T/C [11]: 63.3%
- viability, T/C [12]: 56.1%
- viability, T/C [13]: 82.5%
- viability, T/C [14]: 85.6%
- viability, T/C [15]: 79.2%
- viability, T/C [16]: 78.1%
- viability, T/C [17]: 63.8%
- viability, T/C [18]: 60.5%
- viability, T/C [19]: 55.4%
- viability, T/C [20]: 61.9%
- viability, T/C [21]: 66.2%
- viability, T/C [22]: 67.3%
- viability, T/C [23]: 60%
- viability, T/C [24]: 42.5%
- viability, T/C [25]: 47.5%
- viability, T/C [26]: 55.3%
- viability, T/C [27]: 45.5%
- viability, T/C [28]: 46.7%
- viability, T/C [29]: 49.4%
- viability, T/C [30]: 45.2%
- viability, T/C [31]: 41.2%
- viability, T/C [32]: 31.3%
- viability, T/C [33]: 32.4%
- viability, T/C [34]: 35.4%
- viability, T/C [35]: 30.5%
- viability, T/C [36]: 27.8%

SMILES: Cc1nc(N2CCC3(CC2)COC(C)C3N)c(CO)nc1Sc1ccnc(N)c1Cl (centres undefined) + CNC(C)C(=O)NC1CN(S(=O)(=O)c2cccc(S(=O)(=O)N3CCC4CCC(C(=O)NC(c5ccccc5)c5ccccc5)N4C(=O)C(NC(=O)C(C)NC)C3)c2)CCC2CCC(C(=O)NC(c3ccccc3)c3ccccc3)N2C1=O
- IC50 (second compound 0.00316 µM): 2210 nM
- IC50 (second compound 0.01 µM): 1150 nM
- IC50 (second compound 0.0316 µM): 1960 nM
- IC50 (second compound 0.1 µM): 89.3 nM
- IC50 (second compound 0.316 µM): < 9.49 nM
- IC50 (second compound 1 µM): < 9.49 nM
- viability, T/C [1]: 93.4%
- viability, T/C [2]: 70.8%
- viability, T/C [3]: 80.5%
- viability, T/C [4]: 66.7%
- viability, T/C [5]: 70.2%
- viability, T/C [6]: 41.9%
- viability, T/C [7]: 75.5%
- viability, T/C [8]: 90.1%
- viability, T/C [9]: 67.8%
- viability, T/C [10]: 70%
- viability, T/C [11]: 52.2%
- viability, T/C [12]: 36.2%
- viability, T/C [13]: 65.2%
- viability, T/C [14]: 72.8%
- viability, T/C [15]: 71.3%
- viability, T/C [16]: 63.8%
- viability, T/C [17]: 53.2%
- viability, T/C [18]: 47.2%
- viability, T/C [19]: 70.3%
- viability, T/C [20]: 51.2%
- viability, T/C [21]: 54.1%
- viability, T/C [22]: 39.8%
- viability, T/C [23]: 39.9%
- viability, T/C [24]: 27.6%
- viability, T/C [25]: 43.5%
- viability, T/C [26]: 39.8%
- viability, T/C [27]: 38.1%
- viability, T/C [28]: 37.7%
- viability, T/C [29]: 32.4%
- viability, T/C [30]: 22.8%
- viability, T/C [31]: 29.8%
- viability, T/C [32]: 22.5%
- viability, T/C [33]: 29.8%
- viability, T/C [34]: 23.1%
- viability, T/C [35]: 18.5%
- viability, T/C [36]: 19.3%
